Measurements published in the Biogen ADME set (Fang et al. 2023).
In brackets after ≈: the same amount, converted by molar mass.

Details: for aqueous solubility: pH 6.8

| SMILES | intrinsic clearance, human liver microsomes [L/h/kg] | intrinsic clearance, rat liver microsomes [L/h/kg] | aqueous solubility [mg/mL] | MDR1-MDCK efflux ratio | fraction unbound, human plasma |
| --- | --- | --- | --- | --- | --- |
| C=CCN(C)CCCCCCOc1ccc(C(=O)c2ccc(Br)cc2)c(F)c1 | 1.87 | 19.2 | 0.0214 (≈ 47.7 µM) |  |  |
| COc1cc([C@@H]2c3cc4c(cc3[C@H](O)[C@H]3COC(=O)[C@@H]23)OCO4)cc(OC)c1OC | 2.67 | 351 |  | 0.444 |  |
| CC(C)CC(=O)Nc1cccnc1N(C)C | ≤ 0.284 | 3.47 | 0.0303 (≈ 137 µM) | 0.597 |  |
| CCn1c(=O)c2cc(OC)c(OC)cc2n(Cc2ccc(Cl)cc2)c1=O |  |  | 0.0004 (≈ 1.07 µM) |  |  |
| Cn1cc(-c2ccc(-c3cncc(Cl)c3N3CCC4(CCNC4=O)CC3)cc2)cn1 | 3.94 | 18.5 | 0.00311 (≈ 7.37 µM) | 61.1 |  |
| COc1ccc(Oc2cc(C)c(-c3csc(NC(=O)c4ccncc4)n3)c(C)c2)cc1 |  |  | 0.00031 (≈ 0.718 µM) |  |  |
| CC1(C)CN(C(=O)C2(C(=O)N3CC(C)(C)C3(C)C)CCC2)C1(C)C | 18.2 | 72.5 | 0.075 (≈ 224 µM) | 2.4 |  |
| Cc1oc(C)c(C(=O)NCC#Cc2ccccc2)c1C | 6.41 | 79.3 | 0.048 (≈ 180 µM) | 0.446 |  |
| CC(C)Nc1ccc(-c2cc3c(cc2CO)OCCO3)cn1 | 0.822 | 343 |  | 0.775 |  |
| Clc1ccc2c(NCCN3CCOCC3)ncnc2c1 | 0.7 | 12.8 |  | 1.37 |  |
| Fc1ccc(-c2cc(C3CCNCC3)ccn2)cc1 | ≤ 0.284 | ≤ 0.64 | 0.041 (≈ 160 µM) |  |  |
| Cc1nc(CNC2CCN(C(=O)C3CC3)CC2)cs1 | ≤ 0.284 | ≤ 0.64 | 0.0426 (≈ 152 µM) | 3.43 |  |
| Cc1cc(C(=O)NCCC2=CSC3=NCCCN23)c2cccc(C)c2n1 | ≤ 0.284 | 17.4 | 0.0461 (≈ 126 µM) | 8.31 |  |
| OC(CNCc1ccc(OCc2cccs2)cc1)c1ccccc1 (stereo not drawn) |  |  | 0.0429 (≈ 126 µM) |  |  |
| CN(CC(=O)Nc1cc(F)cc(F)c1)c1ccnc(C(N)=O)c1 | ≤ 0.284 | 2.56 | 0.0459 (≈ 143 µM) | 12.3 |  |
| N#Cc1cc(-c2n[nH]c(-c3ccncc3)n2)ccn1 | 0.533 | 7.72 | 0.0143 (≈ 57.5 µM) | 4.87 |  |
| CC(C)c1cnn2c(NCc3ccccc3)cc(NCCCCCCN)nc12 | 0.466 | 12.6 | 0.05 (≈ 131 µM) | 41.3 |  |
| COc1cccc2c1OC(C)(C)[C@@H]1C[C@H]3CNCC[C@H]3O[C@@H]21 | ≤ 0.284 | 3.09 | 0.0534 (≈ 176 µM) | 17.1 |  |
| CC1(C)CC(=O)c2c(C(F)(F)F)nn(-c3ccc(C(N)=O)c(N[C@H]4CC[C@H](OC(=O)CN)CC4)c3)c2C1 | 12.2 | 28.2 |  |  |  |
| O=C(Cn1nc(Cc2ccccc2)c2ccccc2c1=O)NCCc1c[nH]cn1 | 2.19 | 35.8 |  | 34.6 |  |
| CC(C)N(CCCNC(=O)Nc1ccc(C(C)(C)C)cc1)C[C@@H]1O[C@@H](n2ccc3c(N)ncnc32)[C@H](O)[C@H]1O | 11.2 | 116 |  | 6.05 |  |
| CCC(C)(C)c1ccc(Oc2ccc(NC(=O)Nc3ccccc3OC)cc2)cc1 |  |  | 0.00043 (≈ 1.06 µM) |  |  |
| Cc1ncsc1C(=O)N1C[C@@H]2CCCN(C(=O)c3scnc3C)[C@@H]2C1 | ≤ 0.284 | 0.659 | 0.0759 (≈ 202 µM) | 82 |  |
| CC(=O)c1ccccc1-c1cccc(C(=O)NCCCN2CCCC2)c1 | ≤ 0.284 | 44.5 |  | 133 |  |
| c1ccc2c(c1)CN(c1cnc3ccccc3n1)CCN2 | 5.64 | 37.7 | 0.0251 (≈ 90.8 µM) | 0.54 |  |
| COc1ccc(-c2nc(C3CCN(C(=O)c4sc(C)nc4C)CC3)[nH]c2C(N)=O)cc1 | ≤ 0.284 | 2.37 | 0.0618 (≈ 141 µM) | 42.1 |  |
| N#Cc1cc2c(nc1SCc1cccnc1)CCCCCC2 |  |  | 0.00022 (≈ 0.711 µM) | 0.913 |  |
| CC#CC(=O)N1CCC[C@@H]1c1nc(-c2ccc(C(=O)Nc3ccccn3)cc2)c2c(N)nccn12 | 4.43 | 16.5 |  | 37.1 | 0.0946 |
